Test results reported in patent US20240025903A1, “Bicyclic Compounds and Uses Thereof for the Treatment of Diseases” (Athira Pharma, Inc., priority 2020, published 2024).

Columns and labels:
[1] = In vitro stability in rat plasma; assay type: in vitro ADME; details: 5 μM, 37° C.
Experimental: (§1) Bioavailability can be estimated by compound stability when exposed to conditions in the body. As an initial assessment of stability properties in a variety of conditions present in animals, exemplary compounds were tested for stability in a battery of simulated body compartments. Compounds were tested for stability in the following solutions: simulated gastric fluid (SGF: 34.2 mM NaCl, pH 1.2), simulated gastric fluid with the digestive enzyme pepsin (SGF+Enzyme: SGF with 3.2 mg/ml pepsin), simulated intestinal fluid with the mixture of enzymes in porcine pancreatin (SIF+Enzyme: 28.7 mM NaH2PO4, 105.7 mM NaCl, pH 6.8, 10 mg/ml pancreatin), rat plasma, and human plasma.
(§2) Test compounds were incubated at a final concentration of 5 μM in the above solutions at 37° C. with samples removed at the following time points: 0, 1, 2, and 4 hours. Reactions were stopped and prepared for quantification by addition of excess quench solution containing an internal standard (acetonitrile, 200 ng/mL bucetin). Test compound and internal standard in each sample was quantified by LC-MS/MS, and after internal normalization to bucetin, test compound concentration was expressed as a percentage of concentration at the 0-hour time point. Stability in the relevant test solution was then determined by the percent remaining at the 4-hour time point.

HGF/MET system = biological target: T1, HGF/MET system (Homo sapiens, UniProt P08581+P14210); test: Phospho-MET ELISA; assay type: cell-based; details: HEK293 cells, 1 ng/mL recombinant HGF, 15 minutes, pMET ELISA
T1 construct: HEK293 cells were prepared by passage into 6-well multi-plates; endogenous in cells; host or cells: HEK293
Summary of the method: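 Serum-starved (≥8 h) HEK293 cells treated with compound plus 1 ng/mL recombinant HGF for 15 min at 37° C in triplicate, then lysed in RIPA. Equal protein (50–100 μg, BCA-normalized) run in pMET sandwich ELISA, A450 read. Responses scaled 1–10 between 1 ng/mL and 10 ng/mL HGF means, using peak efficacy.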

[2] = Parallel artificial membrane permeability assay (PAMPA); assay type: in vitro ADME; details: PBS, room temperature
Experimental: Bioavailable drugs must permeate the cellular membranes of the lining of the digestive tract. To estimate the penetrability of exemplary compounds, the in vitro parallel artificial membrane permeability assay (PAMPA) was utilized.
Test compounds must have a standard curve in the final read plate to determine partitioned concentration of each drug. A 6-point standard curve was prepared for each compound from 0 to 200 μM in phosphate-buffered saline (PBS).
Test compound solution (300 μL in PBS) was added to the donor (bottom) well of the PAMPA plate in 5 replicates and PBS vehicle (200 μL) was added to the acceptor (top) wells of appropriate wells to match the loading of the donor plate. The bottom and top of the PAMPA plates were then sandwiched together. The PAMPA plates were then incubated at room temperature for 5 hours. After incubation, 150 μL of donor solution was added to a UV compatible plate containing the corresponding standard curve. 150 μL of acceptor well solution was added adjacent to the corresponding standard curve and donor well samples for that compound. The plate was then read using a UV plate reader.
Permeability and membrane retention were then calculated based on the following formulas:
Permeability (cm/s): (Pe)(cm/s)={−ln [1−CA(t)/Ceq]}/[A*(1/VD+1/VA)*t] (equation 1) • where: • A=filter area (0.3 cm^2); • VD=donor well volume (0.3 mL); • VA=acceptor well volume (0.2 mL); • t=incubation time (seconds); • CA(t)=compound concentration in acceptor well at time t; • CD(t)=compound concentration in donor well at time t; and • Ceq=[CD(t)*VD+CA(t)*VA]/(VD+VA).
Membrane Retention (R)=1−[CD(t)*VD+CA(t)*VA]/(C0*VD) (equation 2) • where: • CD(t), VD, CA(t), and VA are as defined for equation 1, and • C0=initial concentration in donor well (200 uM).

[3] = In vitro stability in human plasma; assay type: in vitro ADME; details: 5 μM, 37° C.
Experimental: as §1, §2

[4] = In vitro stability in simulated gastric and intestinal fluids; assay type: in vitro ADME; details: 37° C.; for SGF + Enz (compound remaining after 4 hours): SGF with 3.2 mg/ml pepsin; for SGF + Enz (compound remaining after 4 hours) / SIF (compound remaining after 4 hours): 5 μM; for SGF (compound remaining after 4 hours): simulated gastric fluid pH 1.2, 5 μM; for SIF (compound remaining after 4 hours): simulated intestinal fluid pH 6.8 with 10 mg/ml pancreatin
Experimental: as §1, §2

[5] = Turbidimetric solubility assay; assay type: physicochemical; details: PBS, 37° C., absorbance 620 nm; for solubility at 2 h: aqueous buffer, kinetic from dmso stock

T1 sequence (P08581 308-1390 limits assumed): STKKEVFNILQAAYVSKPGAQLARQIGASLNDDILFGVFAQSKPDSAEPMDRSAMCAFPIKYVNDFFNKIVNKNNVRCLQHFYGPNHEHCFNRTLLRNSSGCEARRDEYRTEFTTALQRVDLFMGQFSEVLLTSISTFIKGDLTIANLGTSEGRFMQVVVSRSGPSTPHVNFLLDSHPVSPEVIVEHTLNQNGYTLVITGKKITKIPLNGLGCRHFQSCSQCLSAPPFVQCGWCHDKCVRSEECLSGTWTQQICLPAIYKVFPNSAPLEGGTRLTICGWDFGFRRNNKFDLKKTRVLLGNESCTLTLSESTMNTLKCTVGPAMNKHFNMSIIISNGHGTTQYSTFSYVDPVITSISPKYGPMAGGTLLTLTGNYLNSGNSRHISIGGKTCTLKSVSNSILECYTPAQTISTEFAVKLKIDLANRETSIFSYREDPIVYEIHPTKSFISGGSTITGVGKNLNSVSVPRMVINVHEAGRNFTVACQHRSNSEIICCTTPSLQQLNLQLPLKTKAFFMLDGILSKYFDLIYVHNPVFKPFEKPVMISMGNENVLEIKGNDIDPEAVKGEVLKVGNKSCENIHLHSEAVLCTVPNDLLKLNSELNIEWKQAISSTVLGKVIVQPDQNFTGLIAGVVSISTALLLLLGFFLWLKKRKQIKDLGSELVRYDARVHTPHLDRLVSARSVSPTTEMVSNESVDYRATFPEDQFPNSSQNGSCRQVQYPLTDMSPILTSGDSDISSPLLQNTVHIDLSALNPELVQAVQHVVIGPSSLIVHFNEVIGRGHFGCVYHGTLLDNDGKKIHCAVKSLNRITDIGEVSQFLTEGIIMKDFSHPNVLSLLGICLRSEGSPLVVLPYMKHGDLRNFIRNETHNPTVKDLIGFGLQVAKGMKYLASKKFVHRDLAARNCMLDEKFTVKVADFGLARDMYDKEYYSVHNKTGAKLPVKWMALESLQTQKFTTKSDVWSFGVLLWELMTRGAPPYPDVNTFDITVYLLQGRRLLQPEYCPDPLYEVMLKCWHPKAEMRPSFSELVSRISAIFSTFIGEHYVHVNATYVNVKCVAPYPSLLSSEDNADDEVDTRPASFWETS
T1 sequence (P14210 32-494 limits assumed): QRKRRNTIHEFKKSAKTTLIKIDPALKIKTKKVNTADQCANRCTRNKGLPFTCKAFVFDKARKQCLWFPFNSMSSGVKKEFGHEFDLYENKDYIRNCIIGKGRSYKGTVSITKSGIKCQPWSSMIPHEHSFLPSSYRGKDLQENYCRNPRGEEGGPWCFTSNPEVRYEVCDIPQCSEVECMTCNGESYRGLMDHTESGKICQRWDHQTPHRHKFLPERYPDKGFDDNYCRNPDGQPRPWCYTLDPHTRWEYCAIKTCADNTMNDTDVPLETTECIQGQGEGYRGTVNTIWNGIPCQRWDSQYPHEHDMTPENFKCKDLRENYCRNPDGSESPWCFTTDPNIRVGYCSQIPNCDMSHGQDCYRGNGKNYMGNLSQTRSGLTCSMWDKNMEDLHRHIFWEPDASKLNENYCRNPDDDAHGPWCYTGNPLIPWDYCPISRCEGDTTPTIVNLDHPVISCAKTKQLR

| Compound | Papp at 5 h, 200 µM [2] [×10⁻⁶ cm/s] | solubility at 2 h [5] [µM] | Rat Plasma (compound remaining after 4 hours) [1] | Potency (augmentation of MET phosphorylation) (HGF/MET system) | Human Plasma (compound remaining after 4 hours) [3] | SGF + Enz (compound remaining after 4 hours) [4] | SGF (compound remaining after 4 hours) [4] | SIF (compound remaining after 4 hours) [4] | Permeability ([2]; 5 hours) | Solubility ([5]; 2 hours) |
| --- | --- | --- | --- | --- | --- | --- | --- | --- | --- | --- |
| CCC(C)CN1CC2N(C(=O)c3ccc(O)cc3)CCC(=O)N2[C@@H](C)C1=O (some centres unmarked) [Compound 8a] | – | – | ++++ (++++ indicates 100% compound remaining after 4 hours) | + (+ indicates maximum potency at or above 100 nM) | ++ (++ indicates 40-79% compound remaining after 4 hours) | +++ (+++ indicates 80-99% compound remaining after 4 hours) | ++++ (++++ indicates 100% compound remaining after 4 hours) | +++ (+++ indicates 80-99% compound remaining after 4 hours) | + (+ indicates permeability above 1 × 10^−5 cm/s) | ++++ (++++ indicates solubility at 300 μM) |
| CCC(C)CN1CC2N(Cc3ccc(C(F)(F)F)cc3)CCC(=O)N2[C@@H](C)C1=O (some centres unmarked) [Compound 5a] | < 2 | > 300 | ++ (++ indicates 40-79% compound remaining after 4 hours) | + (+ indicates maximum potency at or above 100 nM) | ++ (++ indicates 40-79% compound remaining after 4 hours) | + (+ indicates 20-39% compound remaining after 4 hours) | +++ (+++ indicates 80-99% compound remaining after 4 hours) | +++ (+++ indicates 80-99% compound remaining after 4 hours) | – | – |
| CCC(C)CN1CC2N(C(=O)c3ccc(OC(F)F)cc3)CCC(=O)N2[C@@H](C)C1=O (some centres unmarked) [Compound 2a] | < 2 | > 300 | ++ (++ indicates 40-79% compound remaining after 4 hours) | ++ (++ indicates maximum potency at or above 10 nM) | ++ (++ indicates 40-79% compound remaining after 4 hours) | +++ (+++ indicates 80-99% compound remaining after 4 hours) | ++++ (++++ indicates 100% compound remaining after 4 hours) | ++++ (++++ indicates 100% compound remaining after 4 hours) | – | – |
| CCC(C)CN1CC2N(Cc3ccc(O)nc3)CCC(=O)N2[C@@H](C)C1=O (some centres unmarked) [Compound 7a] | > 10 | > 300 | – | ++ (++ indicates maximum potency at or above 10 nM) | – | +++ (+++ indicates 80-99% compound remaining after 4 hours) | ++++ (++++ indicates 100% compound remaining after 4 hours) | ++ (++ indicates 40-79% compound remaining after 4 hours) | – | – |

More lines, main results first:

| Papp at 5 h, 200 µM [2] [×10⁻⁶ cm/s] | solubility at 2 h [5] [µM] | Compound | Rat Plasma (compound remaining after 4 hours) [1] | Potency (augmentation of MET phosphorylation) (HGF/MET system) | Human Plasma (compound remaining after 4 hours) [3] | SGF + Enz (compound remaining after 4 hours) [4] | SGF (compound remaining after 4 hours) [4] | SIF (compound remaining after 4 hours) [4] | Permeability ([2]; 5 hours) | Solubility ([5]; 2 hours) |
| --- | --- | --- | --- | --- | --- | --- | --- | --- | --- | --- |
| > 2 | > 300 | CCCCN1CC2N(C(=O)c3ccc(OC(F)F)cc3)CCC(=O)N2C(C)C1=O (centres unmarked) [Compound 17] | ++ (++ indicates 40-79% compound remaining after 4 hours) | +++ (+++ indicates maximum potency at or above 1 nM) | +++ (+++ indicates 80-99% compound remaining after 4 hours) | +++ (+++ indicates 80-99% compound remaining after 4 hours) | +++ (+++ indicates 80-99% compound remaining after 4 hours) | +++ (+++ indicates 80-99% compound remaining after 4 hours) | – | – |
| < 2 | > 300 | CC1C(=O)N(CCC2CCCC2)CC2N(C(=O)c3ccc(C(F)(F)F)cc3)CCC(=O)N12 (centres unmarked) [Compound 19] | +++ (+++ indicates 80-99% compound remaining after 4 hours) | +++ (+++ indicates maximum potency at or above 1 nM) | +++ (+++ indicates 80-99% compound remaining after 4 hours) | ++ (++ indicates 40-79% compound remaining after 4 hours) | +++ (+++ indicates 80-99% compound remaining after 4 hours) | + (+ indicates 20-39% compound remaining after 4 hours) | – | – |
| < 2 | > 300 | CC1C(=O)N(CCC2CCC2)CC2N(C(=O)c3ccc(C(F)(F)F)cc3)CCC(=O)N12 (centres unmarked) [Compound 20] | ++ (++ indicates 40-79% compound remaining after 4 hours) | + (+ indicates maximum potency at or above 100 nM) | +++ (+++ indicates 80-99% compound remaining after 4 hours) | +++ (+++ indicates 80-99% compound remaining after 4 hours) | +++ (+++ indicates 80-99% compound remaining after 4 hours) | +++ (+++ indicates 80-99% compound remaining after 4 hours) | – | – |
| > 2 | > 300 | CCC(C)CN1CC2N(C(=O)c3ccc(F)cc3)CCC(=O)N2C(C)C1=O (centres unmarked) [Compound 11, 1-(4-fluorobenzoyl)-6-methyl-8-(2-methylbutyl)hexahydro-4H-pyrazino[1,2-a]pyrimidine-4,7(6H)-dione] | ++++ (++++ indicates 100% compound remaining after 4 hours) | +++ (+++ indicates maximum potency at or above 1 nM) | +++ (+++ indicates 80-99% compound remaining after 4 hours) | +++ (+++ indicates 80-99% compound remaining after 4 hours) | +++ (+++ indicates 80-99% compound remaining after 4 hours) | ++++ (++++ indicates 100% compound remaining after 4 hours) | – | – |
| < 2 | > 300 | CCC(C)CN1CC2N(C(=O)c3ccc(C(F)(F)F)c(Cl)c3)CCC(=O)N2C(C)C1=O (centres unmarked) [Compound 12, 1-(3-chloro-4-(trifluoromethyl)benzoyl)-6-methyl-8-(2-methylbutyl)hexahydro-4H-pyrazino[1,2-a]pyrimidine-4,7(6H)-dione] | ++++ (++++ indicates 100% compound remaining after 4 hours) | ++ (++ indicates maximum potency at or above 10 nM) | +++ (+++ indicates 80-99% compound remaining after 4 hours) | +++ (+++ indicates 80-99% compound remaining after 4 hours) | +++ (+++ indicates 80-99% compound remaining after 4 hours) | ++ (++ indicates 40-79% compound remaining after 4 hours) | – | – |
| > 2 | > 300 | CC1C(=O)N(CC2CCC2)CC2N(C(=O)c3ccc(OC(F)F)cc3)CCC(=O)N12 (centres unmarked) [Compound 14] | +++ (+++ indicates 80-99% compound remaining after 4 hours) | – | +++ (+++ indicates 80-99% compound remaining after 4 hours) | ++ (++ indicates 40-79% compound remaining after 4 hours) | ++ (++ indicates 40-79% compound remaining after 4 hours) | +++ (+++ indicates 80-99% compound remaining after 4 hours) | – | – |
